Here are results for 18 compounds from patent US20260345574A1, “POTENT AND SELECTIVE IRREVERSIBLE INHIBITORS OF IRAK1” (Dana-Farber Cancer Institute, Inc., priority 2022, published 2026).

The target of test [1] is T1, IRAK4 (Homo sapiens, UniProt Q9NWZ3).
T1 sequence (Q9NWZ3 1-460): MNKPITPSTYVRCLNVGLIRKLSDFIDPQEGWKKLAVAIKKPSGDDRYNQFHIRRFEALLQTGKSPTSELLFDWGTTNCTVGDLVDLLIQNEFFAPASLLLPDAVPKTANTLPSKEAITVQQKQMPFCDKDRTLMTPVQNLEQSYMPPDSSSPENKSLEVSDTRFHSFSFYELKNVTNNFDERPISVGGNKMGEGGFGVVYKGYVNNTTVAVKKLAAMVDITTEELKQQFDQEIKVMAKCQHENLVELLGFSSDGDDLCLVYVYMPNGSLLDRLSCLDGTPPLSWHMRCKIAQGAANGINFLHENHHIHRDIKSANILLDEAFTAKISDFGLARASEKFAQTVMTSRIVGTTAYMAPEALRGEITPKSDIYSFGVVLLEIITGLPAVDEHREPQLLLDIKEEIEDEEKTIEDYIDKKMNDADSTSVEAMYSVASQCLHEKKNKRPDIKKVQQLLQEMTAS
As to the kind of experiment: Z'-LYTE assay (ThermoFisher) against IRAK4. Format: biochemical. As to conditions: Ser/Thr 07 substrate, 60 minutes at room temperature. As for the experimental part:
To measure the IC50 values of compounds herein against IRAK4, a Z′-LYTE assay (ThermoFisher) was used. Briefly, 2.5 μL of different concentrations of the compounds in 1% DMSO were added to 2.4 μL kinase buffer (50 mM HEPES pH 7.5, 0.01% BRIJ-35, 10 mM MgCl2, 1 mM EGTA) in each well of a 384-well plate (Corning Cat. #3676). 5 μL of 2× IRAK4/Ser/Thr 07 mixture (prepared in 50 mM HEPES pH 7.5, 0.01% BRIJ-35, 10 mM MnCl2, 2 mM DTT, and 0.02% NaN3) and 2.5 μL of 4× ATP solution (4× ATP, 50 mM HEPES, pH 7.5, 0.01% BRIJ-35, 10 mM MgCl2, 1 mM EGTA) were added to each well. The plate was shaken for 30 seconds, and then incubated at room temperature for 60 minutes. 5 μL of a 1:100000 dilution of Development Reagent A was added to each well. The plate was shaken for 30 seconds and incubated for 60 minutes at room temperature. The plate was subsequently read on a fluorescence plate reader, and the emissions ratio was calculated to determine the ratio of Ser/Thr 07 phosphorylated by the reaction. Emissions Ratio=Coumarin Emission (443 nm)/Flourescein Emission (520 nm).

Test [2] concerns the target IRAK1 (Homo sapiens, UniProt P51617). The test is described as follows: Adapta Universal Kinase Assay (ThermoFisher) against IRAK1. Format: biochemical. As to conditions: Histone H3 (1-20) peptide substrate, 60 minutes at room temperature. As for the experimental part: To measure the IC50 values of the compounds herein against IRAK1, the Adapta Universal Kinase Assay (ThermoFisher) was used. Briefly, 100 nL of different concentrations of the compounds in 100% DMSO were added to each well of a 384-well plate (Corning Cat. #4512). 2.4 μL of 30 mM HEPES, 2.5 μL of 4× ATP solution (in water), and 5 μL of 2× IRAK1/Histone H3 (1-20) peptide mixture (prepared in 50 mM HEPES pH 7.5, 0.01% BRIJ-35, 10 mM MgCl2, 1 mM EGTA) were added to each well. The plate was shaken for 30 seconds and centrifuged for 1 minute at 1000×g. The plate was then incubated at room temperature for 60 minutes. 5 μL of Detection Mix was added to each well. The plate was shaken for 30 seconds and centrifuged for 1 minute at 1000×g. The plate was then incubated at room temperature for 60 minutes. The plate was subsequently read on a fluorescence plate reader, and the emissions ratio was calculated to determine the ratio of ATP to ADP. Emissions Ratio=AF647 Emission (665 nm)/Europium Emission (615 nm).

Structures are written as SMILES.

Sequence of IRAK1 (P51617 whole entry): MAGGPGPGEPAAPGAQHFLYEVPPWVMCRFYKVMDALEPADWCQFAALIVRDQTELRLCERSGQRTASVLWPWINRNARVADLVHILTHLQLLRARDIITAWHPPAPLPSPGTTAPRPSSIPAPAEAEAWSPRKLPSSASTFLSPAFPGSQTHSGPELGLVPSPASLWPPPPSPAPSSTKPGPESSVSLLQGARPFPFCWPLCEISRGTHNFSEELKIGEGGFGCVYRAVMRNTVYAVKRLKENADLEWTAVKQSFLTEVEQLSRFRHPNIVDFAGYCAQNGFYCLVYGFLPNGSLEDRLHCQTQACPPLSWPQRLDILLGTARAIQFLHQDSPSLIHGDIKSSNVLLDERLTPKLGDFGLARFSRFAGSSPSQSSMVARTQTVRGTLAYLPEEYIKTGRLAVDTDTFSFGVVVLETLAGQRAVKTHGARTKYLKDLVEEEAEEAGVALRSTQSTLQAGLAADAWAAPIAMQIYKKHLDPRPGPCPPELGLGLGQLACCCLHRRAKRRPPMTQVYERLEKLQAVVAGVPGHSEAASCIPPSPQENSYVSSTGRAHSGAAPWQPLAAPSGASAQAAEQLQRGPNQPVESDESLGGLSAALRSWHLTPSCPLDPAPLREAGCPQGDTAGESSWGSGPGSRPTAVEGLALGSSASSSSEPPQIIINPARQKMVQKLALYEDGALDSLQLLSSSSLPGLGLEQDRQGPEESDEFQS

In general, IC50 refers to the concentration needed to halve the response being measured. With `C=CC(=O)N1CCC[C@H](C(=O)Nc2ccc(NC(=O)c3csc(-c4ccn[nH]4)n3)cc2)C1` [Compound 071, (S)-N-(4-(1-acryloylpiperidine-3-carboxamido)phenyl)-2-(1H-pyrazol-5-yl)thiazole-4-carboxamide], the IC50 in test [1] turned out to be 8220 nM; in test [2] it was 609 nM.

Regarding `C=CC(=O)N1CCC[C@H](c2nc(-c3ccc(NC(=O)c4cccc(-c5ccn[nH]5)n4)c(F)c3)no2)C1` [Compound 076, (S)-N-(4-(5-(1-acryloylpiperidin-3-yl)-1,2,4-oxadiazol-3-yl)-2-fluorophenyl)-6-(1H-pyrazol-5-yl)picolinamide], the half-inhibitory concentration (IC50) in test [1] is more than 10000 nM; in test [2], 16.4 nM.

Consider `C=CC(=O)N[C@@H]1CNC[C@H](c2nc(-c3ccc(NC(=O)c4cccc(-c5ccn[nH]5)n4)c(F)c3)no2)C1` [Compound 098, N-(4-(5-((3R,5S)-5-acrylamidopiperidin-3-yl)-1,2,4-oxadiazol-3-yl)-2-fluorophenyl)-6-(1H-pyrazol-5-yl)picolinamide], for which the IC50 was more than 10000 nM in test [1] and 45.9 nM in test [2].

For `C=CC(=O)N1CC(c2nc(-c3ccc(NC(=O)c4cccc(-c5[nH]ncc5Cl)n4)nc3)no2)CC(F)(F)C1` (stereo not drawn) [Compound 008, N-(5-(5-(1-acryloyl-5,5-difluoropiperidin-3-yl)-1,2,4-oxadiazol-3-yl)pyridin-2-yl)-6-(4-chloro-1H-pyrazol-5-yl)picolinamide], the IC50 is more than 10000 nM in test [1] and 5.11 nM in test [2].

With `C=CC(=O)N1CCC[C@H](c2nc(-c3ccc(NC(=O)c4cccc(-c5ccn[nH]5)n4)c(C(F)(F)F)c3)no2)C1` [Compound 080, (S)-N-(4-(5-(1-acryloylpiperidin-3-yl)-1,2,4-oxadiazol-3-yl)-2-(trifluoromethyl)phenyl)-6-(1H-pyrazol-5-yl)picolinamide], the IC50 in test [1] came out at 3620 nM; in test [2], 8.25 nM.

Regarding `C=CC(=O)N1C[C@@H](c2nc(-c3ccc(NC(=O)c4cccc(-c5ccn[nH]5)n4)nc3)no2)CC(F)(F)C1` [Compound 063], the results for the IC50 in test [1] and in test [2] were more than 10000 nM and 14.8 nM, respectively.

As for `C=CC(=O)N1CCC[C@H](C(=O)Nc2ccc(NC(=O)c3csc(-c4ccn[nH]4)n3)nc2)C1` [Compound 068, (S)-N-(5-(1-acryloylpiperidine-3-carboxamido)pyridin-2-yl)-2-(1H-pyrazol-5-yl)thiazole-4-carboxamide], the 50% inhibitory concentration (IC50) in test [1] amounted to 5760 nM; in test [2], 324 nM.

As for `C=CC(=O)N1C[C@@H](c2nc(-c3ccc(NC(=O)c4cccc(-c5ccn[nH]5)n4)cc3)no2)C[C@@H](C(F)(F)F)C1` [Compound 078], the IC50 was more than 10000 nM in test [1] and 521 nM in test [2].

With `C=CC(=O)N1C[C@@H](c2nc(-c3ccc(NC(=O)c4cccc(-c5ccn[nH]5)n4)c(F)c3)no2)CC(F)(F)C1` [Compound 090, (S)-N-(4-(5-(1-acryloyl-5,5-difluoropiperidin-3-yl)-1,2,4-oxadiazol-3-yl)-2-fluorophenyl)-6-(1H-pyrazol-5-yl)picolinamide], the IC50 was more than 10000 nM in test [1] and 6.62 nM in test [2].

As to `C=CC(=O)N1CCC[C@H](C(=O)Nc2ccc(-c3ncc(-c4cccc(-c5ccn[nH]5)n4)[nH]3)nc2)C1` [Compound 024], the results for the IC50 in test [1] and in test [2] were 474 nM and 6.54 nM, respectively.

As for `C=CC(=O)N1CCC[C@H](c2nc(-c3ccc(NC(=O)c4cccc(-c5cc(C#N)n(C)c5)n4)cc3)no2)C1` [Compound 087], the IC50 in test [1] is more than 10000 nM; in test [2], 5720 nM.

For the compound `C=CC(=O)N1CC(c2nc(-c3ccc(NC(=O)c4cccc(-c5ccn[nH]5)n4)nc3)no2)CC(F)(F)C1` (stereo not drawn) [Compound 002, N-(5-(5-(1-acryloyl-5,5-difluoropiperidin-3-yl)-1,2,4-oxadiazol-3-yl)pyridin-2-yl)-6-(1H-pyrazol-5-yl)picolinamide], the results for the IC50 in test [1] and in test [2] were more than 10000 nM and 6.42 nM, respectively.

For the compound `C=CC(=O)N1CCC[C@H](c2nc(-c3ccc(NC(=O)c4cccc(-c5ccn[nH]5)n4)c(OC(F)(F)F)c3)no2)C1` [Compound 081, (S)-N-(4-(5-(1-acryloylpiperidin-3-yl)-1,2,4-oxadiazol-3-yl)-2-(trifluoromethoxy)phenyl)-6-(1H-pyrazol-5-yl)picolinamide], the results for the half-inhibitory concentration (IC50) in test [1] and in test [2] were 794 nM and 9 nM, respectively.

As to `C=CC(=O)N1CCC[C@H](c2nc(-c3ccc(NC(=O)c4cccc(-c5ccnn5CC5(C(F)(F)F)CC5)n4)nc3)no2)C1` [Compound 017, (S)-N-(5-(5-(1-acryloylpiperidin-3-yl)-1,2,4-oxadiazol-3-yl)pyridin-2-yl)-6-(1-((1-(trifluoromethyl)cyclopropyl)methyl)-1H-pyrazol-5-yl)picolinamide], the 50% inhibitory concentration (IC50) in test [1] and in test [2] was more than 10000 nM in each case.

For `C=CC(=O)N1CC(c2nc(-c3ccc(NC(=O)c4cccc(-c5[nH]ncc5C)n4)c(F)c3)no2)CC(F)(F)C1` (stereo not drawn) [Compound 093, N-(4-(5-(1-acryloyl-5,5-difluoropiperidin-3-yl)-1,2,4-oxadiazol-3-yl)-2-fluorophenyl)-6-(4-methyl-1H-pyrazol-5-yl)picolinamide], the IC50 is more than 10000 nM in test [1] and 8.3 nM in test [2].

As for `C=CC(=O)N1CCC[C@H](C(=O)Nc2ccc(Nc3n[nH]c4ccc(-c5ccn[nH]5)nc34)cc2)C1` [Compound 026], the values for the half-maximal inhibitory concentration (IC50) in test [1] and in test [2] were 365 nM and 6.86 nM, respectively.

On to `C=CC(=O)N1CC(c2nc(-c3ccc(NC(=O)c4cccc(-c5[nH]ncc5C)n4)nc3)no2)CC(F)(F)C1` (stereo not drawn) [Compound 007, N-(5-(5-(1-acryloyl-5,5-difluoropiperidin-3-yl)-1,2,4-oxadiazol-3-yl)pyridin-2-yl)-6-(4-methyl-1H-pyrazol-5-yl)picolinamide], for which the results for the IC50 in test [1] and in test [2] were more than 10000 nM and 3.98 nM, respectively.

As for `C=CC(=O)N1CCC[C@H](c2nc(-c3ccc(NC(=O)c4cccc(-c5ccn[nH]5)n4)c(OC)c3)no2)C1` [Compound 084, (S)-N-(4-(5-(1-acryloylpiperidin-3-yl)-1,2,4-oxadiazol-3-yl)-2-methoxyphenyl)-6-(1H-pyrazol-5-yl)picolinamide], the IC50 in test [1] came to 204 nM; in test [2] it was 1.67 nM.
